Data from patent US6469058B1 (priority 1998, dated 2002).
“And” between values parts separate entries of the source, which are not always exact repeats. Equal values may be shown once. Read-outs that look alike come from different tables or passages of the source.

Tests used:
[1] = system: LC-12 squamous cell lung carcinoma tumor; settings: for tumor growth substantially inhibited for (FIG. 2) / day on which significant tumor growth commenced (FIG. 1): controls Day 10
[2] = Phase 1 dose-escalation study of CI-994 in solid tumor patients (MTD, pharmacokinetics, food effect)
clinical = settings: human, in vivo, po
[3] = Phase 1 study of CI-994 in relapsed acute leukemia or other hematologic malignancy; type: in vivo
Method: An additional Phase 1 study was conducted in patients with relapsed acute leukemia or other hematologic malignancy using a once daily high-dose 5-day dosing schedule. The MTD was 135 mg/m^2/day. […] Other adverse events included nausea, vomiting, hypotension resulting from dehydration, hypocalcemia, headache, and in one patient each, acute pancreatitis, a pyramidal syndrome characterized by hyperreflexia and bilateral Babinski reflexes, and sepsis. Hematologic toxicities cannot be assessed in this patient population. Two patients with AML developed tumor lysis syndrome, resulting in one death. Transient decreases in peripheral white blood cell counts were noted.

[4] = human, in vivo
[5] = Route of elimination, radiolabeled drug in urine, monkeys; type: in vivo; settings: within 24 hours
Method: (§1) Mass balance/route of elimination studies have not been conducted in humans. Animal studies indicate that the principal route of elimination is via renal excretion, with 80% and 62% of radiolabeled drug appearing in the urine of monkeys and rats, respectively, within 24 hours.

[6] = Route of elimination, radiolabeled drug in urine, rats; type: in vivo; settings: within 24 hours
Method: as §1

[7] = Gemcitabine 80 mg/kg/day alone, days 11, 14, 17, 20
[8] = Gemcitabine 160 mg/kg/day alone, days 11, 14, 17, 20
[9] = Table 3 study, Xeloda 500 mg/kg/day alone, days 3-7, 10-14
[10] = Table 3 study, Xeloda 750 mg/kg/day alone, days 3-7, 10-14
[11] = Table 4 study, Xeloda 500 mg/kg/day alone, days 3-7, 10-14
[12] = Table 4 study, Xeloda 750 mg/kg/day alone, days 3-7, 10-14
[13] = CI-994 7.5 mg/kg/day alone, days 3-7, 10-14, 17-21
[14] = CI-994 7.5 mg/kg/day alone, days 17-21, 24-28, 31-35
[15] = CI-994 15 mg/kg/day alone, days 3-7, 10-14, 17-21
[16] = CI-994 15 mg/kg/day alone, days 17-21, 24-28, 31-35
[17] = CI-994 30 mg/kg/day alone, days 3-7, 10-14, 17-21
[18] = CI-994 30 mg/kg/day alone, days 17-21, 24-28, 31-35
[19] = CI-994 60 mg/kg/day alone, days 3-7, 10-14, 17-21
[20] = CI-994 60 mg/kg/day alone, days 17-21, 24-28, 31-35
[21] = CI-994 7.5 mg/kg/day alone, days 11-15, 18-22, 25-29
[22] = CI-994 15 mg/kg/day alone, days 11-15, 18-22, 25-29
[23] = CI-994 30 mg/kg/day alone, days 11-15, 18-22, 25-29
[24] = CI-994 60 mg/kg/day alone, days 11-15, 18-22, 25-29
[25] = Table 2 study, CI-994 7.5 mg/kg/day alone, days 11-15, 18-22, 25-29
[26] = Table 2 study, CI-994 15 mg/kg/day alone, days 11-15, 18-22, 25-29
[27] = Table 2 study, CI-994 30 mg/kg/day alone, days 11-15, 18-22, 25-29
[28] = Table 2 study, CI-994 60 mg/kg/day alone, days 11-15, 18-22, 25-29
[29] = Cisplatin 1 mg/kg/day alone, days 11-15 (first line, r11)
[30] = Cisplatin 1 mg/kg/day alone, days 11-15 (second line, r12)

## Nc1ccn([C@@H]2O[C@H](CO)[C@@H](O)C2(F)F)c(=O)n1 [Gemcitabine, 2′-deoxy-2′,2′-difluoro-cytidine, reference compound]
[1]; 40 mg/kg IP on Days 10, 13, 16, 19
  tumor growth substantially inhibited for (FIG. 2): 25 days
[1]; 80 mg/kg IP on Days 10, 13, 16, 19
  tumor growth substantially inhibited for (FIG. 2): about 32 days
[1]; [7]
  % Weight Change: +1%
  CR: 1/6
  Net Log10 Kill: 0.5
  PR: 0/6
  T − C: 15.4 days
  Toxic Deaths: 0/6
[1]; [8]
  % Weight Change: −3%
  CR: 0/6
  Net Log10 Kill: 1.2
  PR: 1/6
  T − C: 24.0 days
  Toxic Deaths: 0/6

## CCCCCOC(=O)Nc1nc(=O)n([C@@H]2O[C@H](C)[C@@H](O)[C@H]2O)cc1F [Xeloda, 5′-deoxy-5-fluoro-N-[(pentyloxy)carbonyl]-cytidine, reference compound]
C26 colon tumor; [9]
  % Tumor free: 2/10
  Net Log10 Kill: 0.2
  T − C: 13.8 days
  Toxic Deaths: 0/10
C26 colon tumor; [10]
  % Tumor free: 3/10
  Net Log10 Kill: 0.8
  T − C: 20.7 days
  Toxic Deaths: 1/10
C26 colon tumor; Table 3 study, Xeloda 750 mg/kg/day alone, days 3-7, 10-14, listed as capecitabine
  % Tumor free: 3 out of 10
C26 colon tumor; [11]
  % Tumor free: 0/10
  Net Log10 Kill: 0.6
  T − C: 15.2 days
  Toxic Deaths: 0/10
C26 colon tumor; [12]
  % Tumor free: 1/10
  Net Log10 Kill: 1.3
  T − C: 20.4 days
  Toxic Deaths: 0/10

## CC(=O)Nc1ccc(C(=O)Nc2ccccc2N)cc1 [CI-994, 4-acetylamino-N-(2′-aminophenyl)-benzamide]
[2]; 8 weeks of continuous daily therapy followed by a 2-week drug holiday
  MTD: 8 mg/m^2/day
[2]; dose-escalation study
  Responses: one partial response in a heavily pretreated patient with NSCLC and a minor response in one patient each with renal cell cancer and NSCLC
[2]; duration of treatment 14 consecutive days
  maximum tolerated dose (MTD): 15 mg/m^2/day
clinical
  half-life: ~15 h
C26 colon tumor; [13]
  % Tumor free: 0/10
  Net Log10 Kill: −2.2
  T − C: 1.6 days
  Toxic Deaths: 0/10
C26 colon tumor; [14]
  % Tumor free: 0/10
  Net Log10 Kill: −1.3
  T − C: 3.1 days
  Toxic Deaths: 0/10
C26 colon tumor; [15]
  % Tumor free: 0/9
  Net Log10 Kill: −2.3
  T − C: 1.0 days
  Toxic Deaths: 0/9
C26 colon tumor; [16]
  % Tumor free: 0/10
  Net Log10 Kill: −1.0
  T − C: 6.7 days
  Toxic Deaths: 0/10
C26 colon tumor; [17]
  % Tumor free: 0/9
  Net Log10 Kill: −1.8
  T − C: 4.6 days
  Toxic Deaths: 0/9
C26 colon tumor; [18]
  % Tumor free: 0/10
  Net Log10 Kill: −0.8
  T − C: 8.4 days
  Toxic Deaths: 1/10
C26 colon tumor; [19]
  % Tumor free: 0/9
  Net Log10 Kill: −1.8
  T − C: 4.8 days
  Toxic Deaths: 0/9
C26 colon tumor; [20]
  % Tumor free: 0/10
  Net Log10 Kill: −0.7
  T − C: 10.1 days
  Toxic Deaths: 0/10
[3]; in vivo
  dose-limiting toxicity: acute CNS toxicity manifested as sedation and somnolence
[3]; patients with relapsed acute leukemia or other hematologic malignancy, once daily high-dose 5-day dosing schedule
  MTD: 135 mg/m^2/day
[4]
  cumulative toxicity: no evidence of cumulative toxicity
  dose-limiting toxicity: thrombocytopenia or neutropenia
[4]; po
  maximum plasma concentrations with increasing dose levels: less than dose-proportional
  terminal elimination half-life and apparent clearance rate vs dose: independent of the dose administered
  time to maximum blood level after ingestion: 1 to 2 h
[5]
  radiolabeled drug appearing in the urine: 80%
[1]; [21]
  % Weight Change: +4%
  CR: 1/6
  Net Log10 Kill: −1.2
  PR: 0/6
  T − C: 2.4 days
  Toxic Deaths: 0/6
[1]; [22]
  % Weight Change: +10%
  CR: 0/6
  Net Log10 Kill: −1.4
  PR: 0/6
  T − C: 0.4 days
  Toxic Deaths: 0/6
[1]; [23]
  % Weight Change: +1%
  CR: 0/6
  Net Log10 Kill: −1.3
  PR: 0/6
  T − C: 1.6 days
  Toxic Deaths: 0/6
[1]; [24]
  % Weight Change: −9%
  CR: 3/6
  Net Log10 Kill: −0.8
  PR: 0/6
  T − C: 7.8 days
  Toxic Deaths: 0/6
[1]; [25]
  % Weight Change: +9%
  CR: 0/10
  Net Log10 Kill: 0
  PR: 0/10
  T − C: -1.4 days
  Toxic Deaths: 0/10
[1]; [26]
  % Weight Change: +11%
  CR: 0/10
  Net Log10 Kill: 0
  PR: 0/10
  T − C: -1.9 days
  Toxic Deaths: 0/10
[1]; [27]
  % Weight Change: +11%
  CR: 0/10
  Net Log10 Kill: −0.8
  PR: 0/10
  T − C: 4.3 days
  Toxic Deaths: 0/10
[1]; [28]
  % Weight Change: +11%
  Net Log10 Kill: −0.5
  PR: 0/10
  T − C: 8.7 days
  Toxic Deaths: 0/10
[1]; Table 2 study, CI-994 60 mg/kg/day alone, days 11-15, 18-22, 25-29, 60 mg/kg/day
  CR: two complete responses out of 10 and 2/10
[1]; oral 30 mg/kg, Days 10-14, 17-21, 24-28
  day on which significant tumor growth commenced (FIG. 1): ~24 days
[1]; oral 45 mg/kg, Days 10-14, 17-21, 24-28
  day on which significant tumor growth commenced (FIG. 1): ~24 days
[1]; oral 60 mg/kg, Days 10-14, 17-21, 24-28
  tumor growth delayed for (FIG. 1): 33 days
Phase 2, 8 mg/m^2 orally daily
  Clinical benefit: Clinical benefit has been reported in patients with renal cell cancer
  Objective responses: Objective responses have been seen in patients with nonsmall cell lung cancer
In vivo, po
  dose-limiting toxicity: Thrombocytopenia
[6]
  radiolabeled drug appearing in the urine: 62%

## N.N.[Cl][Pt][Cl] [Cisplatin, cis-diaminodichloroplatinum, reference compound]
[1]; [29]
  % Weight Change: +13%
  CR: 0/10
  Net Log10 Kill: −0.1
  PR: 0/10
  T − C: 2.6 days
[1]; [30]
  % Weight Change: +12%
  CR: 0/10
  Net Log10 Kill: −0.1
  PR: 0/10
  T − C: 2.4 days
[1]; cisplatin alone at 2 mg/kg/day
  T-C: 2.4
  complete responses: failed to cause any complete responses
